Measured values as given in publication PMC8301602 (AIChE journal. American Institute of Chemical Engineers, 2020).
Read-outs that look alike come from different tables or passages of the source.

Tests used:
[1] = target: iLOV (Arabidopsis thaliana, UniProt P93025, S394T/S409G/C426A/I452T/F470L/M475V); assay: fluorescence titration of apo protein, emission at […] nm; assay type: binding; settings: PBS; noncooperative 1:1 fit, protein concentration fitted
[2] = target: T1, EcFbFP (Bacillus subtilis, UniProt O34627, C62A); assay: as above; assay type: binding
T1 sequence (O34627 1-137 C62A limits assumed): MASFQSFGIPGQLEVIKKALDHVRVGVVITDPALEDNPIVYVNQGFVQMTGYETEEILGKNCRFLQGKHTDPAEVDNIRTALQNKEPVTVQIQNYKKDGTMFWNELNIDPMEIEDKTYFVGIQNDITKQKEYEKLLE

[3] = target: EcFbFP (B. subtilis); assay: SEC
[4] = target: EcFbFP (B. subtilis); assay: SEC; remark: listed apart in the source

Chain of iLOV (P93025 387-496 S394T/S409G/C426A/I452T/F470L/M475V limits assumed): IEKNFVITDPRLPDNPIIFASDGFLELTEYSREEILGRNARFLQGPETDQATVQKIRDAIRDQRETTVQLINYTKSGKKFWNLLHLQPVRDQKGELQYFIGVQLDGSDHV

Compound	Kd [1] [nM]	Kd [2] [nM]	stoichiometry N [3]	stoichiometry N [4]
Cc1cc2nc3c(=O)[nH]c(=O)nc-3n(C[C@H](O)[C@H](O)[C@H](O)COP(=O)(O)OP(=O)(O)OC[C@H]3O[C@@H](n4cnc5c(N)ncnc54)[C@H](O)[C@@H]3O)c2cc1C [FAD]	180 ± 30	130 ± 20		
Cc1cc2nc3c(=O)[nH]c(=O)nc-3n(C[C@H](O)[C@H](O)[C@H](O)CO)c2cc1C [riboflavin]	890 ± 170	760 ± 150		
Cc1cc2nc3c(=O)[nH]c(=O)nc-3n(C[C@H](O)[C@H](O)[C@H](O)COP(=O)(O)O)c2cc1C [FMN]	230 ± 20	180 ± 30		
EcFbFP			2	2
